SMILES strings stand for the structures.

Among the data in US20170066717A1, “NEW PHENYLAZETIDINECARBOXYLATE OR -CARBOXAMIDE COMPOUNDS” (INVENTIVA, priority 2014, published 2017) are Emax, EC50 and melting point values, retold here.

One series addresses T1, NURR-1/RXRα (Homo sapiens, UniProt P19793).
T1 construct: expressed in transfected cells; host or cells: Cos-7 cells
The experiment in a line: Transactivation test, NURR-1-Gal4/RXRα, luciferase reporter in Cos-7 cells. The following applies: for Emax: COS-7, induction level relative to reference XCT0135908 at 2×10^−5 M (=100%), read-out: hNurr1_RXRaFL Emax (%); for EC50: Cos-7 cells, NURR-1-Gal4/RXRα, luciferase reporter, read-out: hNurr1_RXRaFL EC50. It is filed as cell-based. (In a reporter assay the amount or activity of a reporter protein is the signal.)

Another series addresses T2, NURR-1/RXRγ (Homo sapiens, UniProt P48443).
T2 construct: expressed in transfected cells; host or cells: Cos-7 cells
The experiment in a line: Transactivation test, NURR-1-Gal4/RXRγ, luciferase reporter in Cos-7 cells. It counts as cell-based. The note with it: for Emax: COS-7, induction level relative to reference XCT0135908 at 2×10^−5 M (=100%), read-out: hNurr1_RXRgFL Emax (%); for EC50: Cos-7 cells, NURR-1-Gal4/RXRγ, luciferase reporter, read-out: hNurr1_RXRgFL EC50.

T1 sequence (P19793 whole entry): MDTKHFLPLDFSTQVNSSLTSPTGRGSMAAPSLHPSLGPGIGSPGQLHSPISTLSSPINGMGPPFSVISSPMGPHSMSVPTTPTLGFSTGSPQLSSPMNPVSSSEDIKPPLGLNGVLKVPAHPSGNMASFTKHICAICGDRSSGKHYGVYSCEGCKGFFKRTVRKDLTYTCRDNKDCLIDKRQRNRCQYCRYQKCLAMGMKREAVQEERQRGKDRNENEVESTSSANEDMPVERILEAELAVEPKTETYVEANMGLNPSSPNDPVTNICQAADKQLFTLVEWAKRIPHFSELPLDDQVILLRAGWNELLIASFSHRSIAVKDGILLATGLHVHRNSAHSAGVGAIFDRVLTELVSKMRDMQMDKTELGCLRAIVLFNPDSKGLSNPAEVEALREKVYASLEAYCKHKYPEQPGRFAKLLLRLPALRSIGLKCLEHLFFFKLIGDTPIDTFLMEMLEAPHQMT
T1 sequence (P43354 whole entry partner): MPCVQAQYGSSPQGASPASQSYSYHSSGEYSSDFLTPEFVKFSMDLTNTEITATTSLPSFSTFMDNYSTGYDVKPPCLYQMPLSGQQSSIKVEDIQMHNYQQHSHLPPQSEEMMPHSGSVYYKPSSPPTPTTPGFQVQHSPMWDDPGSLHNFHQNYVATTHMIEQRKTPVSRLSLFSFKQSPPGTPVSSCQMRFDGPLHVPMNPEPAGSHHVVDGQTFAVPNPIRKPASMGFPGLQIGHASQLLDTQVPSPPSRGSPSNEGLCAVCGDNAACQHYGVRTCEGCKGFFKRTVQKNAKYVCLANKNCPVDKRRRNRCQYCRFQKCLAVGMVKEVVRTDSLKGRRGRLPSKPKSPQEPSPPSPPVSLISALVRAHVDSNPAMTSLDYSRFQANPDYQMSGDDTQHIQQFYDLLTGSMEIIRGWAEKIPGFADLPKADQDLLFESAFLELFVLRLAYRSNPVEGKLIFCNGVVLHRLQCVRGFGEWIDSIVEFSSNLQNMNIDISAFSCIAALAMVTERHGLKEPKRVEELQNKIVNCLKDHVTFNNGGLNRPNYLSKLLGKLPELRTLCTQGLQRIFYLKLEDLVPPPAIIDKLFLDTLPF
T1 sequence (P04386 1-147 partner limits assumed): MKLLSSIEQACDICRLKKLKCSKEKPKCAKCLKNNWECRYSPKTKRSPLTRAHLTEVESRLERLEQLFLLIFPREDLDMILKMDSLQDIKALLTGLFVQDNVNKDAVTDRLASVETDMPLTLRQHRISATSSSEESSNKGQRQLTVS
T2 sequence (P48443 whole entry): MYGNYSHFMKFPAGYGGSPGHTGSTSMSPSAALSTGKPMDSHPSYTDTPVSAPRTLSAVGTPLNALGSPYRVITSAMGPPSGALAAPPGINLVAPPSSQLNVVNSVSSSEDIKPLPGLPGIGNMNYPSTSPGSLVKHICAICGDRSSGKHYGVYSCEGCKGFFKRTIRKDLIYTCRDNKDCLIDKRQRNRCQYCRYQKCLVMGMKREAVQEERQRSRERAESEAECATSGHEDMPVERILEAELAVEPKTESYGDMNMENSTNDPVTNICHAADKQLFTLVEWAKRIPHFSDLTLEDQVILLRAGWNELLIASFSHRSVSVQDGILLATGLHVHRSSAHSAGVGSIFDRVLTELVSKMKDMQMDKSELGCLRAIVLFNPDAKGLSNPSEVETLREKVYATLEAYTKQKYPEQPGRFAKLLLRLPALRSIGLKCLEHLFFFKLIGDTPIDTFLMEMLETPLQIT
T2 sequence (P43354 whole entry partner): as the sequence (P43354 whole entry partner) above
T2 sequence (P04386 1-147 partner limits assumed): as the sequence (P04386 1-147 partner limits assumed) above

In general, Emax refers to the maximal effect, on the per cent scale that the assay sets. By EC50 is commonly meant the concentration at which the effect is half-maximal. In general, melting point refers to the temperature of the solid-liquid transition. The molecule `CC1COc2cc(C(F)(F)F)ccc2N1c1cccc(N2CC(C(=O)O)C2)c1` (stereo not shown) [Example 124, 1-[3-[3-methyl-7-(trifluoromethyl)-2,3-dihydro-1,4-benzoxazin-4-yl]phenyl]azetidine-3-carboxyltc add] returned a melting point of 62 to 70 °C. For the same molecule, on NURR-1/RXRα, the Emax amounted to 137% and the EC50 turned out to be 0.019 µM. At NURR-1/RXRγ, the Emax turned out to be 139% and the EC50 came to 0.029 µM.
In the same order, the values of `O=C(O)C1CN(c2cccc(-n3cc(CC4CCC4)c4cc(C(F)(F)F)ccc43)c2)C1` [Example 126, 1-[3-[3-(cyclobutylmethyl)-5-(trifluromethyl)indol-1-yl]phenyl]azetidine-3-carboxylc acid] are 58 to 64 °C, 128%, 0.001 µM, 116% and 0.003 µM.
In the same order, the values of `O=C(O)C1CN(c2cccc(-n3cc(CC4CCOC4)c4cc(C(F)(F)F)ccc43)c2)C1` (stereo not shown) [Example 128, 1-[3-[3-(tetrahydrofuran-3-ylmethyl)-5-(trifluromethyl)indol-1-yl]phenyl]adetidine-3-carboxylic acid] are 63 to 67 °C, 110%, 0.003 µM, 105% and 0.006 µM.
As for `O=C(O)C1CN(c2cccc(-n3cc(CN4CCOCC4)c4cc(C(F)(F)F)ccc43)c2)C1` [Example 132, 1-[3-[3-(morpholinomethyl)-5-(trifluoromethyl)indol-1-yl]phenyl]azetidine-3-carboxylic acid], the melting point lay within 93 to 98 °C. Besides, on NURR-1/RXRα, the Emax was determined as 97% and the EC50 was determined as 0.061 µM. In addition, at NURR-1/RXRγ, the Emax worked out at 132% and the EC50 came to 0.133 µM.
In the same order, the values of `COCCNCc1cn(-c2cccc(N3CC(C(=O)O)C3)c2)c2ccc(C(F)(F)F)cc12` [Example 133, 1-[3-[3-[(2-methoxyethylamino)methyl]-5-(trifluoromethyl)indol-1-yl]phenyl]azetidine-3-carboxylic acid] are 116 to 121 °C, 93%, 1.02 µM, 61% and 1.98 µM.
In the same order, the values of `CC(C)N(C)Cc1cn(-c2cccc(N3CC(C(=O)O)C3)c2)c2ccc(C(F)(F)F)cc12` [Example 134, 1-[3-[3-[[iisopropyl(methyl)amino]methyl]-5-(trifluoromethyl)indol-1-yl]phenyl]azetidine-3-carboxylic acid] are 88 to 95 °C, 89%, 0.227 µM, 108% and 0.664 µM.
Taken in the same sequence, the figures for `O=C(O)C1CN(c2cccc(-n3cc(S(=O)(=O)c4ccccc4)c4cc(C(F)(F)F)ccc43)c2)C1` [Example 135, 1-[3-[3-(benzenesulfonyl)-5-(trifluoromethyl)indol-1-yl]phenyl]azetidine-3-carboxylic acid] were 150 to 153 °C, 77%, 0.034 µM, 83% and 0.065 µM.
For the molecule `O=C(O)C1CN(c2cccc(N3CC4(CCOCC4)c4cc(C(F)(F)F)ccc43)c2)C1` [Example 141, 1-[3-[5-(trifluoromethyl)spiro[indoline-3,4′-tetrahydropyran]-1-yl]phenyl]azetidine-3-carboxylic acid], the melting point is 154 to 162 °C. On NURR-1/RXRα, the Emax is 92% and the EC50 turned out to be 0.14 µM. Besides, on NURR-1/RXRγ, the Emax worked out at 113% and the half-maximal effective concentration (EC50) came out at 0.199 µM.
Taken in the same sequence, the figures for `O=C(O)C1CN(c2cccc(N3C(=O)C4(CCCC4)c4cc(C(F)(F)F)ccc43)c2)C1` [Example 142, 1-[3-[2′-oxo-5′-(trifluoromethyl)spiro[cyclopentane-1,3′-indoline]-1′-yl]phenyl]azetidine-3-carboxylic acid] were 87 to 91 °C, 130%, 0.011 µM, 148% and 0.022 µM.
With `O=C(O)C1CN(c2cccc(N3c4ccc(C(F)(F)F)cc4C4CC43)c2)C1` (stereo not shown) [Example 143, 1-[3-[5-(trifluoromethyl)-1a,6b-dihydro-1H-cyclopropa[b]indol-2-yl]phenyl]azetidine-3-carboxylic acid], the melting point lay within 67 to 71 °C. Further, at NURR-1/RXRα, the Emax turned out to be 97% and the EC50 was found to be 0.018 µM. Also, on NURR-1/RXRγ, the EC50 came to 0.045 µM.
For the molecule `CC1(C)CCC2C(C1)c1cc(C(F)(F)F)ccc1N2c1cccc(N2CC(C(=O)O)C2)c1` (stereo not shown) [Example 145, 1-[3-[3,3-dimethyl-6-(trifluoromethyl)-2,4,4a,9a-tetrahydro-1H-carbazol-9-yl]phenyl]azetidine-3-carboxylic acid], the melting point is 96 to 100 °C. For the same molecule, on NURR-1/RXRα, the Emax came to 98% and the EC50 amounted to 0.004 µM. Besides, at NURR-1/RXRγ, the Emax worked out at 96% and the EC50 amounted to 0.006 µM.
In the same order, the values of `O=C(O)C1CN(c2cccc(N3c4ccc(C(F)(F)F)cc4C4CCCC43)c2)C1` (stereo not shown) [Example 146, 1-[3-[7-(trifluoromethyl)-2,3,3a,8b-tetrahydro-1H-cyclopenta[b]indol-4-yl]phenyl]azetidine-3-carboxylic acid] are 61 to 65 °C, 96%, 0.01 µM, 107% and 0.017 µM.
For `CC(C)Cn1c(=O)n(-c2cccc(N3CC(C(=O)O)C3)c2)c2ccc(C(F)(F)F)cc21` [Example 148], the melting point lay in the range of 134 to 144 °C. Moreover, at NURR-1/RXRα, the Emax was found to be 122% and the EC50 turned out to be 0.031 µM. For the same molecule, at NURR-1/RXRγ, the Emax stood at 130% and the EC50 came out at 0.056 µM.
Taken in the same sequence, the figures for `Cc1cn(-c2cccc(N3CC(C(=O)NS(C)(=O)=O)C3)c2)c2ccc(C(F)(F)F)cc12` [Example 150, N-methylsulfonyl-1-[3-[3-methyl-5-(trifluoromethyl)indol-1-yl]phenyl]azetidine-3-carboxamide] were 99 to 109 °C, 89%, 0.004 µM, 79% and 0.004 µM.
Taken in the same sequence, the figures for `Cc1cn(-c2cccc(N3CC(C(=O)NC4CC4)C3)c2)c2ccc(C(F)(F)F)cc12` [Example 184, N-cyclopropyl-1-[3-[3-methyl-5-(trifluoromethyl)indol-1-yl]phenyl]azetidine-3-carboxamide] were 182 to 184 °C, 90%, 0.005 µM, 91% and 0.007 µM.
In the same order, the values of `Cc1cn(-c2cccc(N3CC(C(N)=O)C3)c2)c2ccc(C(F)(F)F)cc12` [Example 185, 1-[3-[3-methyl-5-(trifluoromethyl)indol-1-yl]phenyl]azetidine-3-carboxamide] are 160 to 163 °C, 95%, 0.005 µM, 90% and 0.007 µM.
